In patent US12291519B2, “2-hydroxycycloalkane-1-carbamoyl” (Idorsia Pharmaceuticals Ltd, priority 2019, dated 2025):

Legend:
human Gal-3 (hGal-3) = human Gal-3 (hGal-3) (Homo sapiens (Human), UniProt P17931); assay: Competitive binding assay: biotinylated hGal-3 binding to microplate-adsorbed asialofetuin (ASF); details: Activity on hGal-3; binding of biotinylated hGal-3 to ASF-coated plates; mean values
Procedure: (§1) Evaluation of Compound Inhibitory Activity (IC50)
The inhibitory activity of compounds is determined in competitive binding assays. […] Alternatively, and preferably, a human Gal-1 version in which all six cysteines are substituted by serines may be used.
Briefly, compounds are serially diluted in DMSO (working dilutions).
(§2) Plates are incubated for 3 hours at 4° C. then washed with cold assay buffer (3×50 uL), incubated for 1 hour with 25 μL/well of a streptavidin-peroxidases solution (diluted in assay buffer to 80 ng/mL) at 4° C., followed by further washing steps with assay buffer (3×50 uL). Finally, 25 μL/well of ABTS substrate is added.
(§3) The calculated IC50 values may fluctuate depending on the daily assay performance. Fluctuations of this kind are known to those skilled in the art. IC50 values from several measurements are given as mean values.

human Gal-1 (hGal-1) = assay: Competitive binding assay: biotinylated hGal-1 binding to microplate-adsorbed asialofetuin (ASF); details: Activity on hGal-1; binding of biotinylated hGal-1 to ASF-coated plates; mean values
Procedure: as §1
The inhibitory activity of compounds is determined in competitive binding assays. This spectrophotometric assay measures the binding of biotinylated human Gal-3 (hGal-3) or human Gal-1 (hGAl-1), respectively, to a microplate-adsorbed glycoprotein, asialofetuin (ASF) (Proc Natl Acad Sci USA. 2013 Mar. 26; 110(13):5052-7.). Alternatively, and preferably, a human Gal-1 version in which all six cysteines are substituted by serines may be used.
Briefly, compounds are serially diluted in DMSO (working dilutions). ASF-coated 384 well pates are supplemented with 22.8 μL/well of biotinylated hGal-3 or hGal-1 in assay buffer (i.e. 300-1000 ng/mL biotinylated hGal-3 or hGal-1) to which 1.2 μL of compound working dilutions are added and mixed.
as §2, with “added. OD (410 nm) is recorded after 30 to 45 min and IC50 values are calculated.” for “added.”
as §3

Chain of human Gal-1 (hGal-1) (P09382 2-135 limits assumed): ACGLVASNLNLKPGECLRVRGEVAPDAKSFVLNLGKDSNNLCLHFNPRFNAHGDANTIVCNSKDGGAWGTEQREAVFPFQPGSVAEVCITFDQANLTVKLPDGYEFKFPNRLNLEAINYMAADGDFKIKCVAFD
Chain of human Gal-3 (hGal-3) (P17931 whole entry): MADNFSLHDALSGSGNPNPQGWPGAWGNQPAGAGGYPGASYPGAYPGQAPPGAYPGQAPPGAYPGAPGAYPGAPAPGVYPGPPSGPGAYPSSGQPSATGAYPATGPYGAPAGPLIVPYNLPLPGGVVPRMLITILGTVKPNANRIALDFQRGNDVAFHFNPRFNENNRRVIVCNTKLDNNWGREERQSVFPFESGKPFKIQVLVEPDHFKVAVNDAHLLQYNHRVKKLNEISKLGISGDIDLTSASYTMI

Row | SMILES | IC50 (human Gal-3 (hGal-3)) | IC50 (human Gal-1 (hGal-1))
1 | O=C([C@@H]1O[C@H](CO)[C@H](O)[C@H](n2cc(-c3cc(F)c(F)c(F)c3)nn2)[C@H]1O)N(Cc1ccccc1)[C@H]1CCCC[C@@H]1O [Example 1, (2R,3R,4S,5R,6R)-N-benzyl-3,5-dihydroxy-N-((1S,2S)-2-hydroxycyclohexyl)-6-(hydroxymethyl)-4-(4-(3,4,5-trifluorophenyl)-1H-1,2,3-triazol-1-yl)tetrahydro-2H-pyran-2-carboxamide] | 154 nM | 6500 nM
2 | O=C([C@@H]1O[C@H](CO)[C@H](O)[C@H](n2cc(-c3cc(F)c(F)c(F)c3)nn2)[C@H]1O)N(Cc1cccc(Cl)c1)[C@H]1CCCC[C@@H]1O [Example 2, (2R,3R,4S,5R,6R)-N-(3-chlorobenzyl)-3,5-dihydroxy-N-((1S,2S)-2-hydroxycyclohexyl)-6-(hydroxymethyl)-4-(4-(3,4,5-trifluorophenyl)-1H-1,2,3-triazol-1-yl)tetrahydro-2H-pyran-2-carboxamide] | 301 nM | 22800 nM
3 | C#Cc1cccc(CN(C(=O)[C@@H]2O[C@H](CO)[C@H](O)[C@H](n3cc(-c4cc(F)c(F)c(F)c4)nn3)[C@H]2O)[C@H]2CCCC[C@@H]2O)c1 [Example 3, (2R,3R,4S,5R,6R)-N-(3-ethynylbenzyl)-3,5-dihydroxy-N-((1S,2S)-2-hydroxycyclohexyl)-6-(hydroxymethyl)-4-(4-(3,4,5-trifluorophenyl)-1H-1,2,3-triazol-1-yl)tetrahydro-2H-pyran-2-carboxamide] | 471 nM | > 100000 nM
4 | O=C([C@@H]1O[C@H](CO)[C@H](O)[C@H](n2cc(-c3cc(F)c(F)c(F)c3)nn2)[C@H]1O)N(CCc1ccccc1)[C@H]1CCCC[C@@H]1O [Example 4, (2R,3R,4S,5R,6R)-3,5-dihydroxy-N-((1S,2S)-2-hydroxycyclohexyl)-6-(hydroxymethyl)-N-phenethyl-4-(4-(3,4,5-trifluorophenyl)-1H-1,2,3-triazol-1-yl)tetrahydro-2H-pyran-2-carboxamide] | 677 nM | > 100000 nM
5 | O=C([C@@H]1O[C@H](CO)[C@H](O)[C@H](n2cc(-c3cc(F)c(F)c(F)c3)nn2)[C@H]1O)N(Cc1ccc(Cl)cc1)[C@H]1CCCC[C@@H]1O [Example 5, (2R,3R,4S,5R,6R)-N-(4-chlorobenzyl)-3,5-dihydroxy-N-((1S,2S)-2-hydroxycyclohexyl)-6-(hydroxymethyl)-4-(4-(3,4,5-trifluorophenyl)-1H-1,2,3-triazol-1-yl)tetrahydro-2H-pyran-2-carboxamide] | 174 nM | 18200 nM
6 | O=C([C@@H]1O[C@H](CO)[C@H](O)[C@H](n2cc(-c3cc(F)c(F)c(F)c3)nn2)[C@H]1O)N(Cc1ccccc1Cl)[C@H]1CCCC[C@@H]1O [Example 6, (2R,3R,4S,5R,6R)-N-(2-chlorobenzyl)-3,5-dihydroxy-N-((1S,2S)-2-hydroxycyclohexyl)-6-(hydroxymethyl)-4-(4-(3,4,5-trifluorophenyl)-1H-1,2,3-triazol-1-yl)tetrahydro-2H-pyran-2-carboxamide] | 71 nM | 1920 nM
7 | O=C([C@@H]1O[C@H](CO)[C@H](O)[C@H](n2cc(-c3cc(F)c(F)c(F)c3)nn2)[C@H]1O)N(Cc1ccccc1C(F)(F)F)[C@H]1CCCC[C@@H]1O [Example 7, (2R,3R,4S,5R,6R)-3,5-dihydroxy-N-((1S,2S)-2-hydroxycyclohexyl)-6-(hydroxymethyl)-N-(2-(trifluoromethyl)benzyl)-4-(4-(3,4,5-trifluorophenyl)-1H-1,2,3-triazol-1-yl)tetrahydro-2H-pyran-2-carboxamide] | 57 nM | 1240 nM
8 | O=C([C@@H]1O[C@H](CO)[C@H](O)[C@H](n2cc(-c3cc(F)c(F)c(F)c3)nn2)[C@H]1O)N(Cc1ccncc1Cl)[C@H]1CCCC[C@@H]1O [Example 8, (2R,3R,4S,5R,6R)-N-((3-chloropyridin-4-yl)methyl)-3,5-dihydroxy-N-((1S,2S)-2-hydroxycyclohexyl)-6-(hydroxymethyl)-4-(4-(3,4,5-trifluorophenyl)-1H-1,2,3-triazol-1-yl)tetrahydro-2H-pyran-2-carboxamide] | 169 nM | 2490 nM
9 | O=C([C@@H]1O[C@H](CO)[C@H](O)[C@H](n2cc(-c3cc(F)c(F)c(F)c3)nn2)[C@H]1O)N(Cc1cccnc1C(F)(F)F)[C@H]1CCCC[C@@H]1O [Example 9, (2R,3R,4S,5R,6R)-3,5-dihydroxy-N-((1S,2S)-2-hydroxycyclohexyl)-6-(hydroxymethyl)-N-((2-(trifluoromethyl)pyridin-3-yl)methyl)-4-(4-(3,4,5-trifluorophenyl)-1H-1,2,3-triazol-1-yl)tetrahydro-2H-pyran-2-carboxamide] | 147 nM | 1640 nM
10 | O=C([C@@H]1O[C@H](CO)[C@H](O)[C@H](n2cc(-c3cc(F)c(F)c(F)c3)nn2)[C@H]1O)N(Cc1cnccc1C(F)(F)F)[C@H]1CCCC[C@@H]1O [Example 10, (2R,3R,4S,5R,6R)-3,5-dihydroxy-N-((1S,2S)-2-hydroxycyclohexyl)-6-(hydroxymethyl)-N-((4-(trifluoromethyl)pyridin-3-yl)methyl)-4-(4-(3,4,5-trifluorophenyl)-1H-1,2,3-triazol-1-yl)tetrahydro-2H-pyran-2-carboxamide] | 122 nM | 1690 nM
11 | CO[C@@H]1[C@@H](n2cc(-c3cc(F)c(F)c(F)c3)nn2)[C@@H](O)[C@@H](CO)O[C@H]1C(=O)N(Cc1ccccc1C(F)(F)F)[C@H]1CCCC[C@@H]1O [Example 11, (2R,3R,4S,5R,6R)-5-hydroxy-N-((1S,2S)-2-hydroxycyclohexyl)-6-(hydroxymethyl)-3-methoxy-N-(2-(trifluoromethyl)benzyl)-4-(4-(3,4,5-trifluorophenyl)-1H-1,2,3-triazol-1-yl)tetrahydro-2H-pyran-2-carboxamide] | 55 nM | 497 nM
12 | CO[C@@H]1[C@@H](n2cc(-c3cc(F)c(F)c(F)c3)nn2)[C@@H](O)[C@@H](CO)O[C@H]1C(=O)N(Cc1ccccc1Cl)[C@H]1CCCC[C@@H]1O [Example 12, (2R,3R,4S,5R,6R)-N-(2-chlorobenzyl)-5-hydroxy-N-((1S,2S)-2-hydroxycyclohexyl)-6-(hydroxymethyl)-3-methoxy-4-(4-(3,4,5-trifluorophenyl)-1H-1,2,3-triazol-1-yl)tetrahydro-2H-pyran-2-carboxamide] | 52 nM | 497 nM
13 | O=C([C@@H]1O[C@H](CO)[C@H](O)[C@H](n2cc(-c3cc(F)c(F)c(F)c3)nn2)[C@H]1O)N(Cc1ncccc1C(F)(F)F)[C@H]1CCCC[C@@H]1O [Example 13, (2R,3R,4S,5R,6R)-3,5-dihydroxy-N-((1S,2S)-2-hydroxycyclohexyl)-6-(hydroxymethyl)-N-((3-(trifluoromethyl)pyridin-2-yl)methyl)-4-(4-(3,4,5-trifluorophenyl)-1H-1,2,3-triazol-1-yl)tetrahydro-2H-pyran-2-carboxamide] | 255 nM | 7250 nM
14 | Nc1nc(Cl)c(CN(C(=O)[C@@H]2O[C@H](CO)[C@H](O)[C@H](n3cc(-c4cc(F)c(F)c(F)c4)nn3)[C@H]2O)[C@H]2CCCC[C@@H]2O)s1 [Example 15, (2R,3R,4S,5R,6R)-N-((2-amino-4-chlorothiazol-5-yl)methyl)-3,5-dihydroxy-N-((1S,2S)-2-hydroxycyclohexyl)-6-(hydroxymethyl)-4-(4-(3,4,5-trifluorophenyl)-1H-1,2,3-triazol-1-yl)tetrahydro-2H-pyran-2-carboxamide] | 419 nM | 3180 nM
